Laboratory results published in patent US12138232B2, “Compounds for treating coronavirus infection” (priority 2020, dated 2024).

What was measured:
[1] = biological target: T1, 3CL protease of SARS-coronavirus 2 (Severe acute respiratory syndrome coronavirus 2, UniProt P0DTD1); assay: 3CL protease fluorescent assay based on commercial kit (BPS cat. 79955-1); assay type: biochemical; conditions: for Activity (RFU/minute): mean ± standard deviation, 0 μM: 743.7 ± 20.6
T1 construct: purchased BPS 79955-1
Experimental: Inhibition of the activity of 3CL protease of SARS-coronavirus 2 (the coronavirus associated with COVID-19) was determined by an assay based on commercial kit (BPS cat. 79955-1). […] The reaction was initiated by addition of 50 μl of 50 μM kit substrate (25 μM final concentration), and then fluorescence was monitored (at 340 nm excitation wavelength, 510 nm emission wavelength) using a CLARIOstar® Plus plate reader (BMG Labtech). The 3CL protease activity was quantified as relative fluorescent units (RFU) per minute.

[2] = based on literature reports; cited from earlier work

CC(C)=CCC(O)C1=CC(=O)c2c(O)ccc(O)c2C1=O (stereo not drawn) [Shikonin, 5,8-dihydroxy-2-(1-hydroxy-4-methylpent-3-en-1-yl)naphthalene-1,4-dione]
Activity (RFU/minute) ([1]; 0.1 μM shikonin): 653.8 ± 28.1 RFU/minute | Activity (RFU/minute) ([1]; 1 μM shikonin): 680.1 ± 34.3 RFU/minute | Activity (RFU/minute) ([1]; 10 μM shikonin): 425.0 ± 7.8 RFU/minute | inhibition of 3CL protease ([1]; 100 μM shikonin): almost complete inhibition | Activity (RFU/minute) ([1]; 100 μM shikonin): 2.9 ± 18.4 RFU/minute | dosages at which toxicity is not expected [2]: less than 8 grams per day
